Each structure is given as a SMILES string.

The source of these data is the METLIN SMRT retention time set (Domingo-Almenara et al. 2019).

This data set is described as follows: gradient 5% acetonitrile 3 min, to 50% in 2 min, to 85% in 15 min, held 3 min, 100 µL/min. The following applies: column: Zorbax Extend-C18 2.1 x 50 mm; eluents: water / acetonitrile, 0.1% formic acid. The method, boiled down:
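Standards, all pure, were combined into mixtures of ~100 molecules and run at 100 μL/min on a Zorbax Extend-C18 column (2.1 × 50 mm, 1.8 μm) with water and acetonitrile, each containing 0.1% formic acid. A coupled quadrupole time-of-flight mass spectrometer operated in positive and negative ionization mode. Retention time values come from computationally picked adduct peaks, each inspected manually.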
`CCc1ccc(-c2noc(Cn3c(=O)n(Cc4ccccc4)c(=O)c4sccc43)n2)cc1` had an RP-LC retention time of 1210 s.
Next, `COc1ccc(NC(=O)NCCn2c(C)nc3ccccc32)c(OC)c1`: 604 s; `C=CCNC(=O)C1CCN(C(=O)Nc2ccc(NC(=O)Nc3ccc(C)c(C)c3)cc2)CC1`: 740 s; `O=C(Nc1nccs1)C1CCN(C(=O)C2CC(=O)N(c3ccc(F)cc3)C2)CC1` (centres undefined): 672 s.
`COc1ccc(Cn2cc(S(=O)(=O)N3CCCCC3)ccc2=O)cc1` gave an RP-LC retention time of 888 s.
`COc1ccc(NC(=O)N2CCCC(Cn3cnc4cccnc43)C2)c(OC)c1` (centres undefined) had an RP-LC retention time of 651 s.
For `CCC(C)C(NC(=O)c1sccc1C)C(=O)Nc1nc2ccccc2[nH]1` (centres undefined), the RP-LC retention time came to 746 s.
Turning to `CN(C)S(=O)(=O)c1ccc(-c2nnc(NC(=O)c3ccc4ncsc4c3)o2)cc1`, the RP-LC retention time was found to be 669 s.
The compound `O=C(CCNc1c(-c2ccccc2)nc2cnccn12)NCc1ccccc1F` showed an RP-LC retention time of 698 s.
Regarding `O=C(NC1CC1)[C@@H]1C[C@H](Oc2cccnc2)CN1C(=O)c1cccs1`, the RP-LC retention time turned out to be 574 s.
Take `Cc1ccc(S(=O)(=O)N2CCC3(CC2)OCCS3)s1`: the RP-LC retention time came out at 906 s.
`Cc1noc(C)c1S(=O)(=O)N1CCC2(CC1)CN(c1ccccc1)C2=O` showed an RP-LC retention time of 924 s.
With `COc1ccc(N2CC(c3noc(-c4ccc(C(C)(C)C)cc4)n3)CC2=O)cc1` (centres undefined) the figure was 1200 s.
For the compound `Cc1nc(-c2ccncc2)nc2c1CCC(=O)N2CCN1CCCC1`, the RP-LC retention time amounted to 533 s.
`O=C(NCC(O)c1ccsc1)NC1CCCCC1` (centres undefined) displayed an RP-LC retention time of 658 s.
`Cc1cccc(NC(=O)N2CCC(OC3CCN(S(C)(=O)=O)CC3)CC2)c1C` showed an RP-LC retention time of 718 s.
Turning to `Cc1[nH]c2ccc(-c3nnc(SCC(=O)NC(C)c4nc5ccccc5[nH]4)o3)cc2c1C` (centres undefined), the RP-LC retention time was determined as 667 s.
In turn, `O=C(Cc1csc2nc(-c3cccc(Br)c3)cn12)Nc1ccc(F)cc1` came in with an RP-LC retention time of 959 s.
On to `COC1CCC12CCN(C(=O)CNC(C)=O)CC2` (centres undefined), for which the RP-LC retention time is 607 s.
Compound `CCc1cc(C2CCCN2C(=O)c2cnn3c(C(F)(F)F)cc(-c4ccco4)nc23)on1` (centres undefined) showed an RP-LC retention time of 870 s.
`CCC(C)NC(=O)C1CCN(c2nccc(-n3nc(C)cc3C)n2)CC1` (centres undefined) returned an RP-LC retention time of 745 s.
`CN1c2ccc(Cl)cc2C(=O)NC12CCN(C(=O)NCc1ccccc1)CC2` yielded an RP-LC retention time of 789 s.
For `CN1CCN(CCCNC(=O)CCCN2C(=O)C(c3ccccc3)Oc3cccnc32)CC1` (centres undefined), the RP-LC retention time worked out at 595 s.
Regarding `CC(Cc1cc2c(c(C(N)=O)c1)N(CCCO)CC2)NCCOc1ccccc1OCC(F)(F)F` (centres undefined), the RP-LC retention time stood at 654 s.
With `Cc1cc(-c2nnc(-c3ccccc3)o2)c(C)n1CC(=O)N1CCN(C2CCCCC2)CC1`, the RP-LC retention time is 666 s.
With `O=C1CN(C(=O)CN2CCCCC2)C(c2ccccc2)c2cc(Br)ccc2N1` (centres undefined) the figure was 656 s; with `COc1ccc(-c2noc(C3CCCN3C(=O)c3cccnc3)n2)cc1` (centres undefined), 725 s; with `COC(=O)Cn1c(C2CC(=O)N(c3ccccc3OC)C2)nc2ccccc21` (centres undefined), 674 s.
In turn, `CCCCNC(=O)CCC1CCN(c2cc(NC3CC3)ncn2)CC1` gave an RP-LC retention time of 629 s.
`CS(=O)(=O)N1CCN(C(=O)C2CCCN(c3ccc(-c4ccc(F)cc4)nn3)C2)CC1` (centres undefined) showed an RP-LC retention time of 611 s.
Consider `CCOc1ccc(C(=O)Nc2cccn3nc(C(C)C)nc23)cc1`, for which the RP-LC retention time was 964 s.
As to `CC(=O)N1CCc2cc(N3CC(C(=O)Nc4ccc5c(c4)OCCO5)CC3=O)ccc21` (centres undefined), the RP-LC retention time was 667 s.
`COc1cccc(-c2ccc3nc(N4CCC(C(=O)N5CCOCC5)CC4)sc3n2)c1` registered an RP-LC retention time of 843 s.
`COc1ccc(Nc2ncccc2S(N)(=O)=O)cc1OC` came in with an RP-LC retention time of 666 s.
Take `O=C(NC1CCCC1)C1CCCN(c2nccnc2Sc2ccccc2)C1` (centres undefined): the RP-LC retention time is 1020 s.
Next, `COc1ccc2[nH]cc(CCn3ccc4c(nnc5ccnn54)c3=O)c2c1`: 686 s; `COc1cc(NC(=O)N2CCN(c3ccc(=O)n(-c4ccc(F)cc4)n3)CC2)cc(OC)c1OC`: 723 s.
As to `O=C(c1ccco1)N1CCc2c([nH]c3ccccc23)C1c1ccc(F)cc1` (centres undefined), the RP-LC retention time amounted to 1080 s.
With `O=C(CC1C(=O)NCCN1C(=O)CN1CCN(c2ccccn2)CC1)Nc1ccccc1` (centres undefined) the figure was 565 s; with `COc1ccc(-c2csc(NC(=O)Cc3csc(-c4ccccc4)n3)n2)cc1`, 1090 s.
Next, `Cc1ccccc1Cn1cc(S(=O)(=O)N2CCOCC2)ccc1=O`: 784 s; `Cc1ccc(-n2nc(C(=O)N3CCN(c4ccccn4)CC3)c(=O)n(C)c2=O)cc1`: 625 s.
Next, `CCOC(=O)c1nc(Nc2cc(F)ccc2F)c2ccccc2n1`: 912 s; `Cc1ccc(S(=O)(=O)N(C)c2ccccc2)s1`: 901 s.
`CCCCOc1ccc(C(=O)N2CCCC2c2nc(-c3ccc(OC)cc3)no2)cc1` (centres undefined): the RP-LC retention time was determined as 1180 s.
`O=C(C1CCCN(Cc2nc(-c3cccnc3)no2)C1)N1CCc2ccccc21` (centres undefined) registered an RP-LC retention time of 595 s.
As for `COc1ccc2[nH]cc(CCN3CC(C(=O)Nc4ccc(C)cc4C)CC3=O)c2c1` (centres undefined), the RP-LC retention time was determined as 775 s.
In the case of `COc1cccc(-n2c(N3CCCC(C(=O)NCCc4cccs4)C3)nc3ccsc3c2=O)c1` (centres undefined), the RP-LC retention time came out at 879 s.
`COC(=O)c1ncn2c1C(=O)N(c1ccc(C)cc1C)C(C)(C(=O)NCc1ccccc1)C2` (centres undefined) came in with an RP-LC retention time of 726 s.
As for `Cc1ncc2c(n1)CCN(C(=O)c1ccccc1Br)C2`, the RP-LC retention time was determined as 655 s.
With `COc1ccccc1-c1nc2sc3c(c2c(=O)[nH]1)CCCC3` the figure was 1150 s.
With `CCOC(=O)c1sc(NC(=O)C2CCCCN2S(=O)(=O)c2cccs2)cc1C` (centres undefined) the figure was 962 s; with `CN(C)c1cccc(C(=O)NC2CCN(c3cc(-c4ccccc4)[nH]n3)C2)c1` (centres undefined), 664 s.
`CC(C)n1c(=O)c(Nc2cccc(Cl)c2)nc2ccncc21` gave an RP-LC retention time of 649 s.
With `CN1C(=O)c2cc(C(=O)NC3CCN(Cc4ccccc4)CC3)nn2CC1(C)C(=O)NC1CCCC1` (centres undefined), the RP-LC retention time is 610 s.
Compound `Cc1ccc(Nc2cc(C)nc(N3CCN(C(=O)Nc4cccc(C)c4)CC3)n2)cc1` had an RP-LC retention time of 1460 s.
The compound `O=C(CN1C(=O)CCCc2cc(S(=O)(=O)N3CCCCCC3)ccc21)NCc1ccccc1` yielded an RP-LC retention time of 905 s.
Compound `O=C(COc1ccccc1[N+](=O)[O-])N(Cc1ccccc1)Cc1ccccc1` gave an RP-LC retention time of 1000 s.
Turning to `Cc1cc(C)n(-c2ccnc(NCCc3cccs3)n2)n1`, the RP-LC retention time was found to be 836 s.
